“Also recorded” adds a separate entry of the source.
Assays:
[1] = tested on: β adrenergic receptors; test: [3H]-dihidroalprenolol binding; details: 20 μM; data not shown
Protocol: Additional binding studies were performed as described elsewhere: [^3 ]-prazosin binding for α1 adrenergic receptors (Medina et al., 1984), [^3 H]-dihidroalprenolol binding for β adrenergic receptors (Medina et al. 1984), [^3 H]-quinuclinidyl benzylate binding for muscarinic cholinergic receptors (Jerusalinksy et al., 1983), [^3 H]-muscimol binding for GABAλ receptors (Medina et al., 1983) and [^3 H]-8-Hydroxydipropylaminotetralin ([^3 H]--OH--DPAT) binding for serotonin (5-HTlλ) receptors (Nenonene et al., 1984).

[2] = target: central benzodiazepine receptors (BDZ-Rs); test: 3H-FNZ binding to rat brain synaptosomal membranes (Section 3); details: rat cerebral cortex; read-out: Ki, 3H-FNZ binding
Protocol: In brief, for each assay, triplicate samples of the membranes, containing 0.2 to 0.4 mg protein were suspended in a final volume of 1 mL of 0.25 mM Tris--HCl buffer, pH 7.3. The incubation was carried out at 4° C. for 60 min with 0.6 nM ^3 H--FNZ. to study the binding saturation, a range of 0.3 to 10 nM ^3 H--FNZ was used. […] The assays were terminated by filtration under vacuum through Whatman GF/A glass-fiber filters, and three washes with 3 mL each of incubation medium. Filters were dried and counted after the addition of 5 mL of 2,5-diphenyloxazole/xylene as scintillation fluid.
The binding of ^3 H--FNZ was carried out as for (i) above.

[3] = tested on: mice; test: Elevated plus-maze test in mice (Section 1, incl. Table 1); type: in vivo, male Swiss mice; details: mice, i.p.
Protocol: Performance of mice on the elevated plus-maze test was used to measure anxiolytic actions in rodents, following i.p. administration of vehicle or compound (II).
The animals used in the pharmacological test were male Swiss mice from breeding stock, weighing 28-35 g. They were placed n groups of ten with free access to water and food, and maintained on 12 h/12 h day/night cycle. In all the tests the mice were i.p. injected with VEH or a solution of the drug, 15 minutes before the assay.
The elevated plus-maze set-up consisted of a maze of two open arms, 25×5 cm, crossed by two closed arms of the same dimensions, with free access to all arms from the crossing point. The closed arms had walls 35 cm high all around. The maze was suspended 50 cm from the room floor. Mice were placed on the central part of the cross facing an open arm. The number of entries and the time spent going into open and closed arms were counted during 5 minutes. […] The total exploratory activity (number of entries in both arms) was also determined.

[4] = tested on: mice; test: Elevated plus maze test in mice (Section 2); type: in vivo, male Swiss mice
Protocol: (§1) Adult male Wistar rats weighing 250 g were used for biochemical experiments. Adult male Swiss male weighing 25-30 g were used for pharmacological assays except for inhibitory avoidance and tail flick tests were done in rats. Animals were housed in a controlled environment, with free access to food and water and maintained on a 12 h/12 h day/night cycle.
An Opto-varimex® apparatus was used according to Viola et al. (1994). The apparatus discriminates between total and ambulatory activities. An increase in the number of transitions through the beams reflects augmented locomotor activity. In this and all following tests in mice, animals were i.p. injected with the vehicle, or with DNF 20 min before the beginning of the tests. In each session, control mice were tested in parallel with those animals receiving drug treatment.
The test was performed in the same session immediately after the locomotor activity measurement (Viola et al., 1994; Wolfman et al., 1994). […] A series of experiments with the injection of the selective central benzodiazepine receptor antagonist Ro 15-1788 (File and Pellow, 1986) was also carried out.

[5] = tested on: mice; test: Holeboard test in mice; type: in vivo, male Swiss mice; details: for number of head dips and time spent head-dipping: mice, i.p.
Protocol: as §1
(§2) The test was performed according to Viola et al. (1994) and Wolfman et al. (1994). The number of head dips and the time spent head dipping were counted during 5 min.

[6] = Holeboard test in mice; type: in vivo, male Swiss mice; details: mouse, in vivo, ip; 10 mg/kg vs anxiolytic dose; read-out: dose decreasing holeboard parameters relative to anxiolytic dose
Protocol: as §1, §2

[7] = target: central benzodiazepine receptor (Rattus norvegicus, UniProt P18508+P62813); test: Autoradiographic [3H]-FNZ displacement on rat brain sections; type: binding, rat (Wistar); design: Wistar rats were decapitated and brains rapidly removed; from tissue; host or cells: Wistar rat brain sagittal sections
central benzodiazepine receptor, sequence (P62813 28-455): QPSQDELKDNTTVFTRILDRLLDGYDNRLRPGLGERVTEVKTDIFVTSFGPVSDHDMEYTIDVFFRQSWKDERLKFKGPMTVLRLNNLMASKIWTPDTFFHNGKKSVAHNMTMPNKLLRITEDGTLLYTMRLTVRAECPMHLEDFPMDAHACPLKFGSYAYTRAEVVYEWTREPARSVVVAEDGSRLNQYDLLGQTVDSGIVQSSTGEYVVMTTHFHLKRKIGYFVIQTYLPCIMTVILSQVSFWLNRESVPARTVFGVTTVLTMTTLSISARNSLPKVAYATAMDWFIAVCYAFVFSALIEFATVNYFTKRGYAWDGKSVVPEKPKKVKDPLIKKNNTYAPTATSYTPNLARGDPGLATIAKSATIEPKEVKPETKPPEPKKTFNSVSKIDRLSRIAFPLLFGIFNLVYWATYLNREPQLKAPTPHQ
central benzodiazepine receptor, sequence (P18508 39-466): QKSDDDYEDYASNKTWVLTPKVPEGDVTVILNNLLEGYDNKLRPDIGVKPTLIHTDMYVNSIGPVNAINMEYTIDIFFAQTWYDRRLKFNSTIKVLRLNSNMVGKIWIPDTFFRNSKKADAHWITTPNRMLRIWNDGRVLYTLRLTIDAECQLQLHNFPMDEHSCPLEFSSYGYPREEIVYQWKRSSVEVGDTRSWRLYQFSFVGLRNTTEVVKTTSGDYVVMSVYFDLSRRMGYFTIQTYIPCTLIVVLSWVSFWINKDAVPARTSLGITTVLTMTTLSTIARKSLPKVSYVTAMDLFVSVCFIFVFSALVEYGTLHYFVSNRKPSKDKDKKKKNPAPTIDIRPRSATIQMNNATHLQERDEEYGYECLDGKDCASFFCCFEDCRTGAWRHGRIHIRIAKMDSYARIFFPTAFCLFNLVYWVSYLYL
central benzodiazepine receptor, sequence (P63138 26-474 partner): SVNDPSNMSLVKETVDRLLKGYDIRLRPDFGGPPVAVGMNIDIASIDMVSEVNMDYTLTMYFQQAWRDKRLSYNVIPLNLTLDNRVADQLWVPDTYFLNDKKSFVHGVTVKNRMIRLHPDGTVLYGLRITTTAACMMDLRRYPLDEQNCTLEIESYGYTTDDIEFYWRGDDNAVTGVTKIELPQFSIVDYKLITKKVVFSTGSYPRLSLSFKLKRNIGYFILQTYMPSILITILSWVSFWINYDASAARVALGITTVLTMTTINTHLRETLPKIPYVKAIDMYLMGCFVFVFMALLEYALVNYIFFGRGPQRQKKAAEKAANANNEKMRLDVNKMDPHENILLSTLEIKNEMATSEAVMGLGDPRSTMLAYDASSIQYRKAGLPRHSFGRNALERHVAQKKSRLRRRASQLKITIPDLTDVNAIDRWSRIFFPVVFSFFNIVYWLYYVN
Protocol: Wistar rats were decapitated and brains rapidly removed. Sagittal sections (15 μm in thickness) were prepared at -20° C. using a microtome-cryostat. The tissue slices were kept frozen at -70° C. until used. For DNF displacement curves to [^3 H]--FNZ binding (0.65 nM), tissue sections were incubated for 60 min at 4° C. in 25 mM Tris HCl buffer, pH 7.4, in presence of different concentrations of DNF (1-600 nM). For non-specific binding we used 10 μM FNZ. The incubation was terminated by rinsing the sections for two min in cold buffer. Sections were briefly dipped in cold distilled water and dried rapidly under a stream of cold air (Niddam et al., 1987).
Autoradiograms were generated by apposing the slide-mounted tissue section to tritium-sensitive film (Hyperfilm Amersham) in a light-proof X-ray cassette at 4° C. for two weeks.
The optical densities from different brain regions were converted first to radioactive units and then to fmol/mm^2 using the [^3 H] standards on the film with the aid of a computerized image densitometric analysis system (MCID 4.02). The values were normalized and the Ki values were determined using a computerized program (Graph-Pad Prism) Bernabeu et al., 1995; Cammarota et al., 1995).

[8] = tested on: rats; test: Tail-flick test in rats; type: in vivo, rat
Protocol: This test was performed according to Siegfried et al. (1987). Analgesia was assessed with a tail-flick apparatus. Rats were wrapped in a towel and placed on the apparatus; the light source positioned below the tail was focused on a point 2.3 cm rostral to the tip of the tail. Deflection of the tail activated a photocell and automatically terminated the trial. Light intensity was adjusted so as to obtain a baseline tail-flick latency (TFL) of 3-6 s. A cut-off time of 10 s was used to prevent tissue damage. Briefly, the general procedure was as follows: a baseline TFL value was obtained for each animal. Following this, the rats were placed alone in a waiting cage. TFL value was measured 1 h after an i.p. injection of vehicle or DNF.

For `O=c1cc(-c2cccc([N+](=O)[O-])c2)oc2ccc([N+](=O)[O-])cc12` [Compound (II), 6,3'-dinitroflavone], the “displacement of [3H]-dihidroalprenolol binding” value [1] was “did not displace”, the Ki [2] was 20 nM and the “percentage of the time spent in the open arms” value ([3]; 3 and 30 μg/kg) was “enhanced the percentage of the time spent in the open arms”. For the same molecule, the total arm entries ([3]; doses 0 to 30 μg/kg) was “without affecting the total arm entries”, the “percentage of entries in the open arms” value ([3]; doses 0 to 30 μg/kg, 15 min before test) was “increased the percentage of entries in the open arms” and the “effect of Ro 15-1788 on DNF anxiolytic effect” value ([4]; mice, DNF 30 μg/kg + Ro 15-1788 1 mg/kg, listed as DNF, 1 mg/kg) was “blocked by the injection of Ro 15-1788; also recorded: blocked by the administration of the selective benzodiazepine antagonist Ro 15-1788”. For the same molecule, the total arm entries ([4]; mice, i.p., 30 μg/kg) was “No differences were observed in the total arm entries”, the “percentage of entries in the open arms” value ([4]; mice, i.p., 30 μg/kg, p<0.01) was “increased the percentage of entries in the open arms” and the “anxiolytic potency in comparison to DZ” value ([4]; ratio to diazepam) was 30 times. The “number of head dips and time spent head-dipping” value ([5]; 10 mg/kg, p<0.01) was “decreased both parameters”, the “number of head dips and time spent head-dipping” value ([5]; up to 3 mg/kg) was “did not change the number of head dips and the time spent head-dipping” and the “dose to produce similar sedative effects in comparison to DZ” value ([5]; ratio to diazepam, higher dose) was 10 fold. For the same molecule, the selectivity ratio [6] was 300, the Ki [7] was 17.2 ± 2.3 nM and the “tail-flick latency (TFL)” value ([8]; rats, 100 μg/kg, 1 h after i.p., median (interquartile), n=11, vehicle 3.2 s) was 3.5 s. The “TFL (in words)” value ([8]; rats, i.p., 100 μg/kg) was “did not alter TFL” and the analgesic effects ([8]; up to 10 mg/kg as worded) was “did not evidence anticonvulsant, myorelaxant, amnesic or analgesic effects”.

Source: patent publication US6080780A, “Use of nitroflavonoids for the treatment of anxiety” (University of Strathclyde, priority 1995, dated 2000)
